# The supplement of paper PMC11061612
# Assays:
# Assay in all cases: combination Emax (second highest fraction inhibited in the dose matrix, 72 h); higher = more inhibition; extreme values may be limits of the assay
# [1] = system: C-33-A (Cervical Carcinoma)
# Procedure, shortened: (§1)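 Cell lines in DMEM/F12 or RPMI with 10% FBS were plated in 1536-well plates, held 24 hours at 37°C, 5% CO2, then given two-drug dose matrices for 72 hours (DMSO typically 0.2%). Viability was read by CellTiter-Glo 2.0 luminescence and scaled as inhibition from 0 (vehicle wells) to 1 (blank wells). Combination Emax is the second-highest inhibition in the matrix; Bliss excess is observed combination effect minus expected EA + EB − EA·EB, EA and EB being single-agent effects.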
# [2] = system: CL-11 (Colorectal Carcinoma)
# Procedure, shortened: as §1
# [3] = system: COR-L88 (Small Cell Lung Carcinoma)
# Procedure, shortened: as §1
# GAK (Melanoma) = system: GAK (Melanoma)
# Procedure, shortened: as §1
# [4] = system: HT-1080 (Other Solid Carcinomas)
# Procedure, shortened: as §1
# IST-MEL1 (Melanoma) = system: IST-MEL1 (Melanoma)
# Procedure, shortened: as §1
# KALS-1 (Glioblastoma) = system: KALS-1 (Glioblastoma)
# Procedure, shortened: as §1
# [5] = system: KP-4 (Pancreatic Carcinoma)
# Procedure, shortened: as §1
# [6] = system: MOLP-8 (Plasma Cell Myeloma)
# Procedure, shortened: as §1
# [7] = system: MOLT-13 (T-Lymphoblastic Leukemia)
# Procedure, shortened: as §1
# [8] = system: MS-1 (Small Cell Lung Carcinoma)
# Procedure, shortened: as §1
# [9] = system: NCI-H1341 (Small Cell Lung Carcinoma)
# Procedure, shortened: as §1
# NCI-H226 (Mesothelioma) = system: NCI-H226 (Mesothelioma)
# Procedure, shortened: as §1
# [10] = system: NCI-H3118 (Head and Neck Carcinoma)
# Procedure, shortened: as §1
# [11] = system: NMC-G1 (Low Grade Glioma)
# Procedure, shortened: as §1
# [12] = system: PL4 (Pancreatic Carcinoma)
# Procedure, shortened: as §1
# [13] = system: SAT (Head and Neck Carcinoma)
# Procedure, shortened: as §1
# [14] = system: SK-CO-1 (Colorectal Carcinoma)
# Procedure, shortened: as §1
# [15] = system: SKG-IIIa (Cervical Carcinoma)
# Procedure, shortened: as §1
# [16] = system: SiHa (Cervical Carcinoma)
# Procedure, shortened: as §1
Compound,combination Emax [1],combination Emax [2],combination Emax [3],combination Emax (GAK (Melanoma)),combination Emax [4],combination Emax (IST-MEL1 (Melanoma)),combination Emax (KALS-1 (Glioblastoma)),combination Emax [5],combination Emax [6],combination Emax [7],combination Emax [8],combination Emax [9],combination Emax (NCI-H226 (Mesothelioma)),combination Emax [10],combination Emax [11],combination Emax [12],combination Emax [13],combination Emax [14],combination Emax [15],combination Emax [16]
"Cc1c2c(nn1C)CSCc1cc(n(C)n1)CSc1cc(c3ccccc3c1)OCCCc1c(C(=O)O)n(C)c3c-2c(Cl)ccc13 [AZD5991] + Cc1cc2ncnn2cc1Nc1ncc2c(n1)n(C1CCOCC1)c(=O)n2C [AZD7648] (first compound max 1 µM, 7x7, partner max 10 µM)",0.416,0.133,0.297,0.305,0.179,0.291,0.377,0.263,1,1,0.564,0.509,0.203,0.308,0.171,0.386,0.664,0.279,0.197,0.255
"Cc1c2c(nn1C)CSCc1cc(n(C)n1)CSc1cc(c3ccccc3c1)OCCCc1c(C(=O)O)n(C)c3c-2c(Cl)ccc13 [AZD5991] + Cn1cnc2c(F)c(Nc3ccc(Br)cc3Cl)c(C(=O)NOCCO)cc21 [Selumetinib] (first compound max 1 µM, 7x7, partner max 3 µM)",0.365,0.525,0.17,0.776,0.428,0.395,0.24,0.226,1,1,0.375,0.496,0.224,0.481,0.31,0.573,0.803,0.818,0.24,0.305
"C[C@@H]1COCCN1c1cc(C2([S@](C)(=N)=O)CC2)nc(-c2ccnc3[nH]ccc23)n1 [AZD6738] + O=C(c1cc(Cc2n[nH]c(=O)c3ccccc23)ccc1F)N1CCN(C(=O)C2CC2)CC1 [Olaparib] (first compound max 10 µM, 7x7, partner max 10 µM)",0.89,0.758,0.342,0.564,0.45,0.726,0.793,0.706,0.794,0.999,0.742,0.755,0.207,0.64,0.392,0.672,0.371,0.768,0.444,0.228
"Cc1cc2ncnn2cc1Nc1ncc2c(n1)n(C1CCOCC1)c(=O)n2C [AZD7648] + C=CCn1c(=O)c2cnc(Nc3ccc(N4CCN(C)CC4)cc3)nc2n1-c1cccc(C(C)(C)O)n1 [AZD1775] (first compound max 10 µM, partner max 1 µM)",0.93,0.638,0.545,0.713,0.405,0.577,0.846,0.59,0.828,0.953,0.827,0.69,0.297,0.897,0.327,0.379,0.623,0.521,0.43,0.308
"Cc1cc2ncnn2cc1Nc1ncc2c(n1)n(C1CCOCC1)c(=O)n2C [AZD7648] + CCN(CCO)CCCOc1ccc2c(Nc3cc(CC(=O)Nc4cccc(F)c4)[nH]n3)ncnc2c1 [AZD2811] (first compound max 10 µM, 7x7, partner max 1 µM)",0.368,0.276,0.244,0.237,0.261,0.457,0.386,0.4,0.493,0.973,0.342,0.371,0.253,0.239,0.279,0.142,0.376,0.549,0.297,0.335
"Cc1cc2ncnn2cc1Nc1ncc2c(n1)n(C1CCOCC1)c(=O)n2C [AZD7648] + CN(C)CCCOc1ccc(-c2ccc3ncc4c(c3c2)n(C2CCOCC2)c(=O)n4C)cn1 [AZD0156] (first compound max 10 µM, 7x7, partner max 1 µM)",0.372,0.255,0.237,0.303,0.151,0.275,0.346,0.23,0.514,0.15,0.309,0.34,0.271,0.215,0.207,0.0509,0.378,0.309,0.241,0.305
"Cc1cc2ncnn2cc1Nc1ncc2c(n1)n(C1CCOCC1)c(=O)n2C [AZD7648] + C[C@@H]1COCCN1C2=NC(=NC(=C2)C3(CC3)[S@](=N)(=O)C)C4=C5C=CNC5=NC=C4 [AZD6738] (first compound max 10 µM, 7x7, partner max 10 µM)",0.913,0.767,0.713,0.578,0.426,0.777,0.866,0.44,0.822,0.903,0.728,0.801,0.304,0.647,0.31,0.631,0.494,0.563,0.318,0.32
"Cc1cc2ncnn2cc1Nc1ncc2c(n1)n(C1CCOCC1)c(=O)n2C [AZD7648] + O=C(c1cc(Cc2n[nH]c(=O)c3ccccc23)ccc1F)N1CCN(C(=O)C2CC2)CC1 [Olaparib] (first compound max 10 µM, 7x7, partner max 10 µM)",0.305,0.144,0.231,0.0973,0.147,0.24,0.18,0.181,0.382,0.35,0.399,0.433,0.149,0.167,0.18,0.28,0.164,0.488,0.0374,0.143
"COc1cccc2c1C(=O)c1c(O)c3c(c(O)c1C2=O)C[C@@](O)(C(=O)CO)C[C@@H]3O[C@H]1C[C@H](N)[C@H](O)[C@H](C)O1 [Doxorubicin] + Cc1cc2ncnn2cc1Nc1ncc2c(n1)n(C1CCOCC1)c(=O)n2C [AZD7648] (first compound max 1 µM, 7x7, partner max 10 µM)",0.904,0.602,0.455,0.803,0.67,0.724,0.832,0.76,0.915,0.986,0.905,0.905,0.802,0.758,0.405,0.535,0.616,0.77,0.512,0.571
"COc1cccc(OCCCN)c1-c1cc(Nc2cnc(C#N)cn2)n[nH]1 [Prexasertib] + C=CCn1c(=O)c2cnc(Nc3ccc(N4CCN(C)CC4)cc3)nc2n1-c1cccc(C(C)(C)O)n1 [AZD1775] (first compound max 1 µM, partner max 1 µM)",0.985,0.834,0.853,0.783,0.576,0.812,0.901,0.8,0.909,1,1,0.982,0.393,0.906,0.384,0.852,0.666,0.775,0.527,0.487
"COc1cccc(OCCCN)c1-c1cc(Nc2cnc(C#N)cn2)n[nH]1 [Prexasertib] + CCc1c2c(nc3ccc(O)cc13)-c1cc3c(c(=O)n1C2)COC(=O)[C@]3(O)CC [SN-38] (first compound max 1 µM, 7x7, partner max 0.3 µM)",0.992,0.849,0.866,0.641,0.651,0.889,0.951,0.9,0.847,1,0.987,0.987,0.4,0.872,0.315,0.877,0.618,0.826,0.595,0.578
"COc1cccc(OCCCN)c1-c1cc(Nc2cnc(C#N)cn2)n[nH]1 [Prexasertib] + CN(C)CCCOc1ccc(-c2ccc3ncc4c(c3c2)n(C2CCOCC2)c(=O)n4C)cn1 [AZD0156] (first compound max 1 µM, 7x7, partner max 1 µM)",0.842,0.734,0.843,0.718,0.563,0.75,0.839,0.434,0.894,1,0.983,0.869,0.179,0.858,0.362,0.806,0.579,0.695,0.389,0.293
"COc1cccc(OCCCN)c1-c1cc(Nc2cnc(C#N)cn2)n[nH]1 [Prexasertib] + C[C@@H]1COCCN1C2=NC(=NC(=C2)C3(CC3)[S@](=N)(=O)C)C4=C5C=CNC5=NC=C4 [AZD6738] (first compound max 1 µM, 7x7, partner max 10 µM)",0.913,0.764,0.833,0.753,0.534,0.817,0.899,0.536,0.891,1,0.971,0.912,0.176,0.816,0.314,0.809,0.552,0.656,0.453,0.445
